The text below walks through data of patent publication US20040180835A1, “Use of the protein uk114 or of fragments thereof for the treatment and prevention of the endotoxic shock” (priority 2001, published 2004).

Marks after values point to notes of the source that are not given here. No end group written: not given here.

The test concerns LPS-induced endotoxic shock. In words: LPS-induced endotoxic shock in mice (death rate after LPS injection). The format is in vivo, Balb/c mice. As for the experimental part: The pharmacological activity of UK 114 and of the peptides of the invention has been studied on the murine model of LPS-induced shock, as reported in the following Example.
Balb/c mice 6-8 weeks old were treated i.p. with 30 mcg of UK114 in 100 μl PBS (group B) or with 4 mcg of peptide 76-90 (group C) 24 hours and one hour before the administration of 500 mcg of LPS. A control group of mice (group A) was tretated with 100 μl PBS according to the same protocol used for groups C and B.
A further group was treated only with UK114 one hour after the administration of LPS (group D). This experimental approach more closely resembles the clinical practice where it is difficult to intervene prophylactically.
The death rate of the animals in each group was recorded every 12 hours up to the third day from the LPS injection.

In the case of VVKATVLLADINDFS [pep. 76-90], the “Death-rate (at 72 h)” value (prophylactic i.p. treatment 24 hours and one hour before 500 mcg LPS, UK114 30 mcg, peptide 76-90 4 mcg, 50 mice per group, PBS control 40/50 (80%)) is recorded as 25/50(50%)***. The “Protection from the lethal effects of LPS” value (prophylactic treatment, 72 hours post LPS, vs PBS control group) is on record as “clearly protected from the lethal effects of LPS”.
